Reference: patent US20250188194A1, “Method of treatment” (Nucleus Therapeutics Pty Ltd, priority 2021, published 2025)
“Also recorded” adds a separate entry of the source.

Test system: differentiated PLB-985 cells
Experiment: Quantifying DNA released (adherent NET-DNA) after PMA stimulation by spectrophotometry
Assay type: cell-based, human
Details: 1, 10 or 50 μM GSK484 one hour prior to PMA; N=2
Method: The results of the DAPI and SYTOX™ Green staining studies in FIG. 2C, 2D are consistent with DX1-mediated inhibition of chromatin decondensation and DNA release by differentiated PLB-985 cells. To further probe this effect, DNA-protein release was measured by differentiated PLB-985 cells after PMA stimulation by resuspending and quantifying DNA-protein complexes adherent to wells by spectrophotometry using a previously described protocol for isolation and quantification of NET-DNA in cell culture. This assay is based on the concept that intact cells for the most part remain in suspension, while DNA-protein complexes released in NETs are at least partially adhered to wells. This distinction allows for separation of intact cells from adherent NET-DNA by aspiration of the cell culture supernatants, followed by resuspension of adherent DNA-protein complexes and quantification by spectrophotometry.
Next, the ability of this assay to detect the effect of a known NETosis inhibitor on DNA release by differentiated PLB-985 cells stimulated by PMA was verified. […] Differentiated PLB-985 cells were treated with 0-50 μM of GSK484 for one hour prior to stimulation with PMA, followed by quantification of adherent DNA by spectrophotometry. […]

For `COc1cc(C(=O)N2CC[C@@H](O)[C@@H](N)C2)cc2nc(-c3cc4ccccc4n3CC3CC3)n(C)c12` [GSK484], the “DNA release in response to PMA (adherent DNA by spectrophotometry)” value was “reduced extracellular DNA in a dose-dependent manner; also recorded: dose-dependent inhibition of DNA release”.
